Experiment [1] deals with Mus musculus. As to the kind of experiment: Compound was evaluated for the antitumor activity against i.p.-implanted M5076 sarcoma by measuring 60 day survivor in four mice a dose of 0.40 mM/kg/day given orally on days 1-5. It counts as functional.
In experiment [2] the test system is Mus musculus. As to the kind of experiment: Compound was evaluated for the antitumor activity against i.p.-implanted M5076 sarcoma in mice for a dose of 0.125 mM/kg/day on days 1-5. The format is functional.
The test system of experiment [3] is Mus musculus. As to the kind of experiment: Compound was evaluated for the antitumor activity against i.p.-implanted M5076 sarcoma by measuring 60 day survivor in four mice a dose of 0.125 mM/kg/day given orally on days 1-5. The format is functional.
The test system of experiment [4] is Mus musculus. As to the kind of experiment: Compound was evaluated for the antitumor activity against i.p.-implanted L1210 leukemia in mice for a dose of 0.125 mM/kg/day given orally on days 1-5. The format is functional.
The subject of experiment [5] is Mus musculus. As to the kind of experiment: Compound was evaluated for the antitumor activity against i.p.-implanted M5076 sarcoma in mice for a dose of 0.40 mM/kg/day given intraperitoneally on days 1-5. The format is functional.
Experiment [6] has as its system Mus musculus. The experiment is described as follows: Compound was evaluated for the antitumor activity against i.p.-implanted M5076 sarcoma in four mice for a dose of 0.40 mM/kg/day given intraperitoneally on days 1-5; Toxic. It counts as functional, organism-based.
The subject of experiment [7] is Mus musculus. As to the kind of experiment: Compound was evaluated for the antitumor activity against i.p.-implanted M5076 sarcoma by measuring 60 day survivor in four mice at a dose of 0.40 mM/kg/day given orally on days 1-5. It counts as functional.

Among the data in ChEMBL document CHEMBL1129163, “Nucleosides and nucleotides. 155. synthesis, antitumor effects, and possible enzymatic activation mechanism of 5-phosphatidyl-2-deoxy-2-methylenecytidine (DMDC)” (1996) are Survivors and ILS values, retold here.

The structures appear in SMILES notation.

Consider `C=C1C(n2ccc(N)nc2=O)O[C@H](CO)[C@@H]1O` (some centres undefined), for which the Survivors in experiment [1] and in experiment [3] was 0 throughout. Also, the ILS (usually the gain in survival time of treated over control animals, in per cent) in experiment [2] came to 44%; in experiment [4] it was 68%; in experiment [5] it was 116%.

With `C=C1[C@H](n2cc(F)c(N)nc2=O)O[C@H](COP(=O)([O-])OC[C@H](COC(=O)CCCCCCCCCCCCCCC)OC(=O)CCCCCCCCCCCCCCC)[C@H]1O.[Na+]`, the ILS result is “Toxic” in experiment [6], more than 179% in experiment [2] and 96% in experiment [4]. In experiment [3], this molecule came in with a Survivors of 3.

For `C=C1[C@H](n2ccc(N)nc2=O)O[C@H](COP(=O)([O-])OC[C@@H](COC(=O)CCCCCCCCCCCCCCC)OC(=O)CCCCCCCCCCCCCCC)[C@H]1O.[Na+]`, the ILS in experiment [2] was 121%; in experiment [4], 64%; in experiment [5], more than 179%. The Survivors in experiment [7] came to 4; in experiment [3], 1.
